# Laboratory results from patent EP4650361A1, “ARGININE OPTICAL PROBE” (East China University of Science and Technology, priority 2023, dated 2024).
# Key:
# [1] = test system: Salmonella Typhimurium arginine-binding protein STM4351 variant E37A with cpYFP inserted at the 200/203 site (STM4351-200/203-E37A-cpYFP), SEQ ID NO: 5; assay: Fluorescence response and titration of purified probe with arginine
# Method: (§1) • 1. Transform the pET28a-based arginine probe plasmid into BL21(DE3), culture overnight in an inverted manner, pick a clone from the plate into a 250 ml conical flask, place in a 37 °C shaker, culture at 220 rpm until OD = 0.4-0.8, add IPTG (1 M) at 1/1000 (v/v), and induce expression at 18 °C for 24-36 h. • 2. After induction expression, collect the bacteria by centrifugation at 4000 rpm for 30 minutes, add 50 mM phosphate buffer to resuspend the bacterial pellet, and ultrasonically disrupt until the bacteria are clarified. Centrifuge at 9600 rpm at 4 °C for 20 minutes. • 3. The centrifuged supernatant is purified by a self-assembled nickel column affinity chromatography column to obtain the protein, and the protein after nickel column affinity chromatography is then passed through a self-assembled desalting column to obtain the protein dissolved in 20 mM MOPS buffer (pH 7.4) or phosphate buffer PBS. • 4. The purified arginine-binding protein mutant protein is identified by SDS-PAGE, and the probe is diluted with assay buffer (100 mM HEPES, 100 mM NaCl, pH 7.3) or phosphate buffer PBS to a final concentration of 5-10 µM protein solution. Prepare arginine into a stock solution with a final concentration of 1 M using assay buffer (20 mM MOPS, pH 7.4) or phosphate buffer PBS. • 5. Take 100 µl of 5 µM protein solution, incubate at 37 °C for 5 min, add arginine respectively and mix to a final concentration of 100 mM, and measure the light absorption of the protein at 340 nm using a multifunctional fluorescence microplate reader. • 6. Take 100 µl of 1 µM fluorescent probe solution, incubate at 37 °C for 5 min, add arginine for titration, and measure the fluorescence intensity of the protein at 528 nm emission after 485 nm fluorescence excitation. The measurement of fluorescence excitation and emission of samples is completed using a multifunctional fluorescence microplate reader. • 7. Take 100 µl of 1 µM fluorescent probe solution, incubate at 37 °C for 5 min, add arginine, and measure the absorption spectrum and fluorescence spectrum of the probe protein. The measurement of absorption spectrum and fluorescence spectrum of samples is completed by a spectrophotometer and a fluorescence spectrophotometer.
# Screen the purified STM4351-cpYFP fusion protein for arginine response, and divide the detection signal of the fusion fluorescent protein containing 100 mM arginine by the detection signal of the fusion fluorescent protein without arginine. […]
# Purify the mutant STM4351-200/203-E37A-cpYFP with high response multiple and good specificity. […] Determination of emission spectrum: fix the excitation wavelengths at 420 nm and 485 nm respectively, record the emission spectrum at […]-540 nm, and read once every 5 nm.
# [2] = test system: Salmonella Typhimurium arginine-binding protein STM4351 variant T138A with cpYFP inserted at the 200/203 site (STM4351-200/203-T138A-cpYFP), SEQ ID NO: 12; assay: as above
# Method: as §1, with “Prepare arginine into a stock solution with a final concentration of 1 M using assay buffer (20 mM MOPS, pH 7.4) or phosphate buffer PBS. • 5.” left out, “spectrophotometer. […]” for “spectrophotometer.”
# [3] = test system: Salmonella Typhimurium arginine-binding protein STM4351 variant H140A with cpYFP inserted at the 200/203 site (STM4351-200/203-H140A-cpYFP), SEQ ID NO: 14; assay: Fluorescence response of purified probe to arginine; conditions: signal with 100 mM arginine divided by signal without arginine, Figure 2
# Method: as §1, with “Prepare arginine into a stock solution with a final concentration of 1 M using assay buffer (20 mM MOPS, pH 7.4) or phosphate buffer PBS. • 5.” left out, “spectrophotometer. […]” for “spectrophotometer.”
# [4] = test system: Salmonella Typhimurium arginine-binding protein STM4351 variant T32A with cpYFP inserted at the 200/203 site (STM4351-200/203-T32A-cpYFP), SEQ ID NO: 4; assay: as above; conditions: signal with 100 mM arginine divided by signal without arginine, Figure 2
# Method: as §1, with “Prepare arginine into a stock solution with a final concentration of 1 M using assay buffer (20 mM MOPS, pH 7.4) or phosphate buffer PBS. • 5.” left out, “spectrophotometer. […]” for “spectrophotometer.”
# [5] = test system: Salmonella Typhimurium arginine-binding protein STM4351 variant D91A with cpYFP inserted at the 200/203 site (STM4351-200/203-D91A-cpYFP), SEQ ID NO: 9; assay: as above; conditions: signal with 100 mM arginine divided by signal without arginine, Figure 2
# Method: as §1, with “Prepare arginine into a stock solution with a final concentration of 1 M using assay buffer (20 mM MOPS, pH 7.4) or phosphate buffer PBS. • 5.” left out, “spectrophotometer. […]” for “spectrophotometer.”
# [6] = test system: Salmonella Typhimurium arginine-binding protein STM4351 variant G89A with cpYFP inserted at the 200/203 site (STM4351-200/203-G89A-cpYFP), SEQ ID NO: 7; assay: Fluorescence response and titration of purified probe with arginine
# Method: • 1. Transform the pET28a-based arginine probe plasmid into BL21(DE3), culture overnight in an inverted manner, pick a clone from the plate into a 250 ml conical flask, place in a 37 °C shaker, culture at 220 rpm until OD = 0.4-0.8, add IPTG (1 M) at 1/1000 (v/v), and induce expression at 18 °C for 24-36 h. • 2. After induction expression, collect the bacteria by centrifugation at 4000 rpm for 30 minutes, add 50 mM phosphate buffer to resuspend the bacterial pellet, and ultrasonically disrupt until the bacteria are clarified. Centrifuge at 9600 rpm at 4 °C for 20 minutes. • 3. […] Take 100 µl of 5 µM protein solution, incubate at 37 °C for 5 min, add arginine respectively and mix to a final concentration of 100 mM, and measure the light absorption of the protein at 340 nm using a multifunctional fluorescence microplate reader. • 6. Take 100 µl of 1 µM fluorescent probe solution, incubate at 37 °C for 5 min, add arginine for titration, and measure the fluorescence intensity of the protein at 528 nm emission after 485 nm fluorescence excitation. The measurement of fluorescence excitation and emission of samples is completed using a multifunctional fluorescence microplate reader. • 7. Take 100 µl of 1 µM fluorescent probe solution, incubate at 37 °C for 5 min, add arginine, and measure the absorption spectrum and fluorescence spectrum of the probe protein. […]
# [7] = 500 mM arginine compared with 0 mM arginine, Figure 4
compound,measurement,setting,value
"N=C(N)NCCC[C@H](N)C(=O)O [arginine, Arginine]",fluorescence intensity under 420 nm excitation,[1]; [7],basically unchanged
same,fluorescence intensity under 485 nm excitation,[1]; [7],about 15.0 times
same,response to arginine,"[1]; arginine titration, Figure 3",about 15 times
same,Kd,"[1]; arginine titration, Figure 3, saturation at 10 mM arginine, read-out: affinity for the substrate",170 to 210 µM
same,"response to arginine, response multiple","[2]; arginine titration, Figure 3",~3.14
same,Kd,"[2]; arginine titration, Figure 3, read-out: affinity for the substrate",190 µM
same,response to arginine,"[2]; signal with 100 mM arginine divided by signal without arginine, Figure 2",exceeding 3 times
same,response to arginine,[3],exceeding 3 times
same,response to arginine,[4],exceeding 3 times
same,response to arginine,[5],exceeding 3 times
same,"response to arginine, response multiple",[6]; Figure 3,about 1.29
same,Kd,"[6]; Figure 3, read-out: affinity for the substrate",23.6 µM
